One assay relates to S. aureus. The experiment in a line: microbe, parasite or virus in culture. More on the design: antibacterial MIC determination on wild-type strains. The note with it: Staphylococcus aureus, read-out: MIC S. aureus.
Another assay concerns E. coli. In words: microbe, parasite or virus in culture. The note with it: Escherichia coli, read-out: MIC E. coli. More on the design: antibacterial MIC determination on wild-type strains. On the procedure: E. coli AcrAB-TolC is a tripartite multidrug efflux pump system that expels compounds form the cell and this represents one of the possible mechanisms of bacterial defence against xenobiotics ([Kim et al., 2015]). […] On the other hand, compound 2 inhibited bacterial growth in both E. coli BW25113 ΔtolC strains with or without permeable membrane (MIC = 0.5 μg/mL). The antibacterial activity in the efflux pump-deficient E. coli BW25113 ΔtolC strain is independent from the presence of polymyxine B. Therefore, it can be postulated on the basis of the evaluation of compound 2, that transport across E. coli cell membrane is possible. This compound therefore represents an interesting starting point for further development, for example computational searches of similar compounds and analog synthesis.

For assay [1], the target named is T1, undecaprenyl pyrophosphate synthase (UppS) (Escherichia coli, UniProt P60472).
T1 construct: gene ispU; N-terminal His6-tagged UppSEc
T1 sequence (P60472 1-253): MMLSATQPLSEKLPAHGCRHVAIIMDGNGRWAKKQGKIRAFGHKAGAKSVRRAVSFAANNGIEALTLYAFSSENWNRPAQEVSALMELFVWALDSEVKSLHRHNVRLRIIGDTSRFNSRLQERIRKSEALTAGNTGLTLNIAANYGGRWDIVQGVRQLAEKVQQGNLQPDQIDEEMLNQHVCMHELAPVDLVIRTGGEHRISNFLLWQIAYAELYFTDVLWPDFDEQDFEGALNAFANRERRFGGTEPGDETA
The experiment in a line: biochemical. The note with it: read-out: % of control remaining. Also on record: radiolabeled [14C]-IPP UppS assay, TLC quantification of [14C]-UPP; residual activity or IC50. As for the experimental part:
The UppS enzymatic activity was determined by using a kinetics-based assay utilizing a radiolabeled substrate. The assay revolves on the measuring of UPP formation in the reaction mixture in a final volume of 40 μL. Stock solutions of all compounds (2 mM) were prepared in DMSO and the final concentration of DMSO in the assay was 5% (v/v). The enzyme was diluted in buffer A to appropriate concentration so that the consumption of the substrate in the assay is no higher than 30%. The reaction mixture consisted of 20 μL of 100 mM HEPES, pH 7.5, 50 mM KCl, 0.5 mM MgCl2, 1.5 μM FPP, 12 μM [^14C]-IPP ([^14C]-IPP; 289 Bq), 2 μL DMSO with or without the inhibitor and 18 μL of optimal enzyme solution. […] Reaction mixture was lyophilized and resuspended in 10 μL of purified water. The radiolabeled substrate, [^14C]-IPP, and the product, [^14C]UPP, were separated on a Silica gel 60 TLC plate using 1-propranol / ammonium hydroxide / water in ratio of 6/3/1 (v/v/v) as a mobile phase (Rf([^14C]–IPP) = 0.21, Rf[^14C]UPP = 0.56), and quantified with a radioactivity scanner (Rita Star, Raytest Isotopenmessgeräte GmbH, Straubenhardt, Germany). Residual activities (RAs) were calculated with respect to a control reaction without the tested compounds and with 5% DMSO. All the experiments were run in duplicate with standard deviations within ± 10%. The IC50 values represented the concentrations for which the RA was 50% and were determined by measuring the RAs at seven different compound concentrations. The 34 purchased compounds were tested for their inhibitory potencies against E. coli UppS using a radioactivity-based assay. In these test conditions, the [^14C]-UPP formation is observed thanks to a radiolabeled substrate ([^14C]-IPP) and quantified with a radioactivity scanner. The results are presented as RAs of UppS in the presence of 100 μM of each compound (Supplementary Table S1). […] Sodium risedronate was used as a positive control to enable the comparison of the purchased compounds to a known inhibitor and to confirm the results of the UppS inhibition assay. […] All three inhibitors are anthranilic acid derivatives with a larger hydrophobic moiety attached to the amide group via different linkers, 2-cyanoacryloyl for compounds 1 and 2 and 2-thioacetyl for compound 3.

Assay [2] concerns the target T2, undecaprenyl pyrophosphate synthase (UppS) (Escherichia coli, UniProt P60472).
T2 construct: gene ispU; N-terminal His6-tagged UppSEc
The experiment in a line: radiolabeled […]-IPP assay, TLC quantification of […]-UPP, IC50 from seven concentrations. In kind it is biochemical.

Molecules are shown by their SMILES. ≈ marks a conversion by molar mass, not a printed value.

In the case of `O=C(O)C1CCCCC1C(=O)Nc1ccc(N2CCN(c3cccc(Cl)c3Cl)CC2)cc1` (stereo not drawn) [S3], the MIC in the assay on S. aureus and with E. coli was > 128 µg/mL throughout. Further, the remaining activity at 100 µM in assay [1] was found to be 96%.

As to `O=C(O)CCC(NC(=O)C(=Cc1cn(-c2ccccc2)nc1-c1cccnc1)NC(=O)c1ccccc1)C(=O)O` (stereo not drawn) [S8], the MIC in the assay with S. aureus and in the assay on E. coli was > 128 µg/mL throughout. Also, the remaining activity at 100 µM in assay [1] worked out at 92%.

Consider `Cc1cccc(C(=O)O)c1NC(=O)COc1ccc(Cl)cc1` [S32], for which the MIC in the assay on S. aureus and in the assay with E. coli was > 128 µg/mL each time. The remaining activity at 100 µM in assay [1] was 122%.

As to `CCOc1ccc(N(CC(=O)Nc2ccccc2C(=O)O)S(=O)(=O)c2ccc(Cl)cc2)cc1` [S26], the results for the MIC with S. aureus and in the assay on E. coli were 128 µg/mL (≈ 262 µM) and > 128 µg/mL, respectively. Also, in assay [1], the remaining activity at 100 µM was 102%.

On to `O=C(O)c1cccc(C(=O)NCCc2nc3ccccc3n2C(F)F)c1` [S20], for which the MIC in the assay with S. aureus and in the assay on E. coli was > 128 µg/mL in each case. The remaining activity at 100 µM in assay [1] was 168%.

As to `O=C(O)c1ccccc1C(=O)Nc1ccc(C(=O)N(c2ccccc2)c2cccc3ccccc23)cc1` [S11], the MIC with S. aureus and with E. coli was > 128 µg/mL each time. In addition, the remaining activity at 100 µM in assay [1] came to 60%.

On to `CCCCCCCCCCCCN(CP(=O)(O)O)CP(=O)(O)O` [S34], for which the MIC in the assay with S. aureus is 128 µg/mL (≈ 343 µM); in the assay on E. coli, > 128 µg/mL. The remaining activity at 100 µM in assay [1] came out at 147%.

In turn, `O=C(CSc1nnc(-c2cc3ccccc3o2)n1-c1ccccc1)Nc1ccccc1C(=O)O` [compound 3] showed an IC50 in assay [2] of 24 µM. Moreover, the MIC in the assay with S. aureus and in the assay with E. coli was > 128 µg/mL throughout.

As to `COc1ccc(C(=O)Nc2ccc(N3CCN(c4ccccc4F)CC3)cc2C(=O)O)cc1` [S21], the MIC in the assay with S. aureus and in the assay with E. coli was > 128 µg/mL each time. Moreover, the remaining activity at 100 µM in assay [1] was 74%.

For the compound `O=C(O)c1ccccc1C(=O)Nc1ccc(C(=O)N(c2ccccc2)c2ccc3ccccc3c2)cc1` [S2], the MIC with S. aureus and in the assay on E. coli was > 128 µg/mL each time. Moreover, the remaining activity at 100 µM in assay [1] turned out to be 58%.

As to `O=C(Cn1cc(-c2ccc(Cl)cc2)ncc1=O)NC(C(=O)O)c1ccccc1` (stereo not drawn) [S29], the MIC in the assay on S. aureus and in the assay with E. coli was > 128 µg/mL each time. For the same compound, the remaining activity at 100 µM in assay [1] stood at 96%.

Regarding `O=C(Nc1ccc(COCc2ccccc2)cc1)c1ccnc(C(=O)O)c1` [S22], the MIC with S. aureus and in the assay with E. coli was > 128 µg/mL throughout. Besides, the remaining activity at 100 µM in assay [1] stood at 93%.

For `O=C(COc1ccccc1)Nc1ccc(N2CCN(c3ccc(Cl)cc3)CC2)cc1C(=O)O` [S25], the MIC in the assay with S. aureus was 64 µg/mL (≈ 137 µM); with E. coli, > 128 µg/mL. Moreover, in assay [1], the remaining activity at 100 µM is 121%.

Turning to `O=C(Cc1ccccc1C(=O)O)Nc1ccn(Cc2ccccc2Cl)n1` [S5], the MIC in the assay on S. aureus and in the assay on E. coli was > 128 µg/mL throughout. The remaining activity at 100 µM in assay [1] stood at 115%.

For `O=C(O)C1CC=CCC1C(=O)Nc1ccccc1C(=O)N1CCN(c2ccc(F)cc2)CC1` (stereo not drawn) [S19], the MIC in the assay with S. aureus and in the assay with E. coli was > 128 µg/mL throughout. For the same compound, the remaining activity at 100 µM in assay [1] worked out at 99%.

Regarding `Cc1sc(NC(=O)c2ccccc2C(=O)O)nc1-c1ccc(-c2ccccc2)cc1` [S12], the MIC in the assay with S. aureus and in the assay on E. coli was > 128 µg/mL each time. Besides, in assay [1], the remaining activity at 100 µM is 120%.

Regarding `O=C(O)c1ccccc1C(=O)NCCC(c1ccc(F)cc1)c1ccco1` (stereo not drawn) [S27], the MIC with S. aureus and in the assay with E. coli was > 128 µg/mL each time. Also, the remaining activity at 100 µM in assay [1] was determined as 99%.

With `N#C/C(=C\c1cccc(OCc2ccc(F)cc2)c1)C(=O)Nc1ccccc1C(=O)O` [compound 2], the IC50 in assay [2] came out at 25 µM. Moreover, the MIC in the assay on S. aureus and in the assay on E. coli was > 128 µg/mL in each case.

`O=C(CN1CCCC1C(=O)O)NCc1ccc(COc2ccccc2)cc1` (stereo not drawn) [S15]: the MIC with S. aureus and with E. coli was > 128 µg/mL each time. Besides, in assay [1], the remaining activity at 100 µM is 124%.

Turning to `CCCn1cc(NC(=O)CNS(=O)(=O)c2cccc3c(N(C)C)cccc23)c(C(=O)O)c1` [S7], the MIC in the assay with S. aureus and in the assay on E. coli was > 128 µg/mL each time. Moreover, the remaining activity at 100 µM in assay [1] came out at 85%.

As for `O=C(NCCc1ccccc1)c1ccc(NC(=O)c2nccnc2C(=O)O)cc1` [S30], the MIC with S. aureus and in the assay on E. coli was > 128 µg/mL each time. Besides, the remaining activity at 100 µM in assay [1] amounted to 122%.

Take `O=C(Nc1ccccc1C(=O)O)c1cccc(NC(=O)C(c2ccccc2)c2ccccc2)c1` [S14]: the results for the MIC in the assay with S. aureus and with E. coli were 128 µg/mL (≈ 284 µM) and > 128 µg/mL, respectively. In addition, in assay [1], the remaining activity at 100 µM came to 101%.

`N#C/C(=C\c1cn(Cc2cccc3ccccc23)c2ccccc12)C(=O)Nc1ccccc1C(=O)O` [compound 1] had an IC50 in assay [2] of 45 µM. Also, the MIC with S. aureus and with E. coli was > 128 µg/mL each time.

`CC(=O)c1ccc(NC(=O)C(Sc2ccc(NC(=O)c3ccccc3C(=O)O)cc2)c2ccccc2)cc1` (stereo not drawn) [S4]: the MIC in the assay on S. aureus and with E. coli was > 128 µg/mL in each case. Moreover, the remaining activity at 100 µM in assay [1] was 101%.

On to `COC(=O)C(NC(=O)c1ccccc1C(=O)O)c1ccc(OCc2ccccc2)c(OC)c1` (stereo not drawn) [S33], for which the MIC in the assay on S. aureus and in the assay on E. coli was > 128 µg/mL each time. For the same compound, the remaining activity at 100 µM in assay [1] was determined as 65%.

Consider `Cc1ccc(Nc2nccc(Nc3ccc(O)c(C(=O)O)c3)n2)c(C)c1` [S9], for which the MIC in the assay with S. aureus and in the assay on E. coli was > 128 µg/mL each time. In addition, the remaining activity at 100 µM in assay [1] is 72%.

In the case of `Cc1cccc(N2CCN(c3ccc(NC(=O)C(C)C)c(C(=O)O)c3)CC2)c1` [S31], the MIC in the assay on S. aureus and with E. coli was > 128 µg/mL each time. The remaining activity at 100 µM in assay [1] amounted to 125%.

On to `Cc1cc(C)n(CCCNc2ccc(C(=O)c3ccccc3C(=O)O)cc2[N+](=O)[O-])n1` [S13], for which the MIC in the assay with S. aureus and with E. coli was > 128 µg/mL in each case. Besides, in assay [1], the remaining activity at 100 µM was found to be 92%.

In the case of `Cc1ccc(OCCNC(=O)C2CC=CCC2C(=O)O)cc1` (stereo not drawn) [S23], the MIC in the assay on S. aureus and with E. coli was > 128 µg/mL throughout. In addition, in assay [1], the remaining activity at 100 µM was found to be 117%.

For the compound `Cc1ccc(N2CCN(C(=O)c3ccccc3NC(=O)C3CC=CCC3C(=O)O)CC2)cc1` (stereo not drawn) [S16], the MIC in the assay on S. aureus and in the assay with E. coli was > 128 µg/mL throughout. Moreover, in assay [1], the remaining activity at 100 µM is 104%.

For `O=C(O)C1CCCCC1C(=O)Nc1ccc(N2CCN(Cc3ccccc3)CC2)cc1` (stereo not drawn) [S6], the MIC in the assay on S. aureus and with E. coli was > 128 µg/mL throughout. For the same compound, the remaining activity at 100 µM in assay [1] turned out to be 53%.

With `CCCc1ccc(S(=O)(=O)Nc2ccc(N3CCN(C4CCCCC4)CC3)cc2C(=O)O)cc1` [S28], the MIC in the assay with S. aureus and with E. coli was > 128 µg/mL each time. The remaining activity at 100 µM in assay [1] was 113%.

For `Cc1ccc(-n2c(SCC(=O)Nc3ccccc3C(=O)O)nnc2-c2cc3ccccc3o2)cc1` [S18], the MIC with S. aureus and in the assay on E. coli was > 128 µg/mL in each case. Besides, in assay [1], the remaining activity at 100 µM came to 122%.

For orientation: IC50 means the concentration at which inhibition is half-maximal.

The values above are taken from article PMC6339874, “Anthranilic Acid Inhibitors of Undecaprenyl Pyrophosphate Synthase (UppS), an Essential Enzyme for Bacterial Cell Wall Biosynthesis” (Frontiers in Microbiology, 2019).
